This experiment deals with DNFB-induced ear swelling. As to the kind of experiment: Contact hypersensitivity model in mice (CHS), DNFB-induced ear swelling. Type of experiment: in vivo. The conditions noted are these: 30 mg/kg p.o., 30 minutes before challenge; DNFB-sensitized Balb/C mice; p<0.05 vs sensitized; FIG. 4. On the procedure:
Balb/C female mice of about 8-12 weeks of age (18-22 g b.w.) were used for the Contact Hypersensitivity model. They were from Charles River Italia (Calco, Italy) and housed under the following constant environmental conditions: temperature 22° C.±2, relative humidity 55%±10, 15-20 air changes per hour (filtered on HEPA 99.99%) and artificial light with a 12-hour circadian cycle (7 a.m.-7 p.m.). All in vivo studies were performed according to the European Council Directive 86/609/EEC and the Italian Ministry guidelines for the care and use of experimental animals (decree #116/92). All the experimental protocols were authorized by the Italian Ministry of Health.
All chemicals were purchased from Sigma-Aldrich (St. Louis, Mo., USA) unless otherwise specified. […]
For the induction of CHS, 8-12 weeks old Balb/C mice, were sensitized by applying once a sensitizing solution of 35 μl of 0.5% DNFB in acetone/olive oil (4:1) on the shaved back. […] Ear thickness was monitored using a caliper at day 0, at day 5 (4 h, 8 h), at day 6 (24 h) and at day 7 (48 h). […] Ear thickness of both ears was measured at three point each, ear swelling was evaluated according to the following formula: […]
All values in the text and figures are presented as mean±SEM of (n) independent experiments. All data were analysed by one-way ANOVA followed by Tukey test. […]

As for `N#CC(c1ccnc(OCc2ccc(CN3CCOCC3)cc2)n1)c1nc2ccccc2s1` (stereo not shown) [JNK inhibitor, 1,3-benzothiazol-2-yl(2-{[4-(morpholin-4-ylmethyl)benzyl]oxy}pyrimidin-4-yl)acetonitrile], the ear swelling entry is on record as “significantly reduced ear swelling”.

For the origin of these results see patent US20090176762A1, “JNK Inhibitors for Treatment of Skin Diseases” (LABORATOIRES SERONO SA, priority 2006, published 2009).
